The source of these data is publication PMC4593646, “The Cyclooctadepsipeptide Anthelmintic Emodepside Differentially Modulates Nematode, Insect and Human Calcium-Activated Potassium (SLO) Channel Alpha Subunits” (PLoS Neglected Tropical Diseases, 2015).

Assay [1] addresses T1, Drosophila Slo (Dm Slo) (Drosophila melanogaster, UniProt Q03720).
T1 construct: alpha subunit, stably expressed in CHO cells
The assay can be described thus: whole cell voltage clamp, CHO cells stably expressing Dm Slo, dose-response. In kind it is cell-based.

The target in assay [2] is T2, human KCNMA1 (hum KCNMA1) (Homo sapiens, UniProt Q12791).
T2 construct: KCNMA1 variant 2/isoform b (NP_002238), expressed in HEK293 cells
T2 sequence (Q12791 whole entry, canonical isoform): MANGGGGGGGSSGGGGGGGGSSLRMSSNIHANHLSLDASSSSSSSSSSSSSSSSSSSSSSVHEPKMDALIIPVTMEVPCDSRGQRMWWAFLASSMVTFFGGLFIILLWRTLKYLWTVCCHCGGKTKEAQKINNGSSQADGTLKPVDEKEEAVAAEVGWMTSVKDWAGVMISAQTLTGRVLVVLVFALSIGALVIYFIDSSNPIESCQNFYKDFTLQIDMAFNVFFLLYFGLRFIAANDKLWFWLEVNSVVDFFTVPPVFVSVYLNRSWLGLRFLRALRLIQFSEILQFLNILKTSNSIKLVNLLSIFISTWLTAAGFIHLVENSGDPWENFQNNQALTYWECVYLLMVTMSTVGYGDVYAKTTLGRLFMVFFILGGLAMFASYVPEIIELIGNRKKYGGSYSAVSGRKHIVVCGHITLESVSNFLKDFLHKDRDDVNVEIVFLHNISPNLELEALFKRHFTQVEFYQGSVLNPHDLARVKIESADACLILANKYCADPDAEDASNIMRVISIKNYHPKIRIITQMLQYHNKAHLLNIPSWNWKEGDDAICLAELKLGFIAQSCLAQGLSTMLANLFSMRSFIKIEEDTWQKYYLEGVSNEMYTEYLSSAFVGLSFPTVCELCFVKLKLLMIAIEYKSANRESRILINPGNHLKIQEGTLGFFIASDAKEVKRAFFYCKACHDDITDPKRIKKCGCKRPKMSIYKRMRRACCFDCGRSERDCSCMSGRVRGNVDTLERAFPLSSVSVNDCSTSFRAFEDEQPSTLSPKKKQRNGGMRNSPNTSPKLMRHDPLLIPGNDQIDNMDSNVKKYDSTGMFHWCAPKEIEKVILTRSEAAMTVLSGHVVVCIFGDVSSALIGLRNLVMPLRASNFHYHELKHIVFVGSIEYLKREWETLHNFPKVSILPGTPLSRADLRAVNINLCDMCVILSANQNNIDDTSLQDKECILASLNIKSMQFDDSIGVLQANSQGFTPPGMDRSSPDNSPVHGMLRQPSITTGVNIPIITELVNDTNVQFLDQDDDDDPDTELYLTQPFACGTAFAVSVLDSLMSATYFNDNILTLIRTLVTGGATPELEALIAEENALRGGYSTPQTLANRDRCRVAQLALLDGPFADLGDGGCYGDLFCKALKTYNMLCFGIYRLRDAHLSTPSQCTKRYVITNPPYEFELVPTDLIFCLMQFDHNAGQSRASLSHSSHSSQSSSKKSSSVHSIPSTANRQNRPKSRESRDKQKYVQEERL
The assay can be described thus: whole cell patch clamp, transfected HEK293 cells; transient facilitation then inhibition at […]. Type of assay: cell-based. (The patch-clamp technique gives a direct electrical read-out from membranes.)

Usually IC50 stands for the concentration that gives 50% inhibition. Read a high IC50 as weaker potency.

T1 sequence (Q03720 whole entry): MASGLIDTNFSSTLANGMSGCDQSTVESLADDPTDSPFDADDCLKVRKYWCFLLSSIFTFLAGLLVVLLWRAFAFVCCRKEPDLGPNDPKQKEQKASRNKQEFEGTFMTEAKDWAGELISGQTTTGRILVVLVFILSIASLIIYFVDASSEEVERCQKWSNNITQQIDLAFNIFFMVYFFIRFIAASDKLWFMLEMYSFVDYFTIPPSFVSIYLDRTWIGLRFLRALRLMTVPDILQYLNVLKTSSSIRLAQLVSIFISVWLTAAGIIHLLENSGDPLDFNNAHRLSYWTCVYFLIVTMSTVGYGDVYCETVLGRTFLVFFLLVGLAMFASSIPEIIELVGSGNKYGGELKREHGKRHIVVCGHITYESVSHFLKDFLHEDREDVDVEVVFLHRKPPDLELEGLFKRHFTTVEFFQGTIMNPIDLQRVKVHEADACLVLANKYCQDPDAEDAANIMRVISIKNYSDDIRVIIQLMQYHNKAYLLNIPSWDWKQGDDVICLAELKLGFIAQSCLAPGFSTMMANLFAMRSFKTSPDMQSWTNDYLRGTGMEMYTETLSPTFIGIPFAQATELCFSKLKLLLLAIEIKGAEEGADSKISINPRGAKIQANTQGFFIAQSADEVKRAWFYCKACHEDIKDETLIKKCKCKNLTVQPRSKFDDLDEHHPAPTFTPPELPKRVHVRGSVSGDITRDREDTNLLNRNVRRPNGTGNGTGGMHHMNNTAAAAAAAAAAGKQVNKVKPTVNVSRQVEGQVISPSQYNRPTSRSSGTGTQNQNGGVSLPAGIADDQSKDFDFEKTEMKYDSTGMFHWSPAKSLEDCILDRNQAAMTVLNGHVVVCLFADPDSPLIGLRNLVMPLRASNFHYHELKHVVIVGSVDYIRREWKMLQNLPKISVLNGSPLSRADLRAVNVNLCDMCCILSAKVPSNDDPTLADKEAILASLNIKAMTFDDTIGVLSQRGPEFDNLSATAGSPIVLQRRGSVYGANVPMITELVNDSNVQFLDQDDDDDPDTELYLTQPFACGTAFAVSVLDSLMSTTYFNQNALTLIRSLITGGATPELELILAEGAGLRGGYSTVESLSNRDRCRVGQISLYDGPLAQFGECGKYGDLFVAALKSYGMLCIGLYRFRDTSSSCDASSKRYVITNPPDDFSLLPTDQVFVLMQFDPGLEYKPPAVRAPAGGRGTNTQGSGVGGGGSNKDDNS

The compound `C=C(C)[C@H]1O[C@H]2CC[C@@]3(C)[C@@](O)(CC[C@H]4[C@@H]5OC(C)(C)[C@H]6C[C@@H]7C(=C)Cc8c(Cl)cc9[nH]c(c5c9c8[C@@]76O)[C@@]43C)[C@@]23O[C@H]3[C@H]1O` [penitrem A] yielded an IC50 in assay [1] of 0.5 nM. This counts as sub-nanomolar.

For the compound `CC(C)C[C@H]1C(=O)O[C@H](Cc2ccc(N3CCOCC3)cc2)C(=O)N(C)[C@@H](CC(C)C)C(=O)O[C@H](C)C(=O)N(C)[C@@H](CC(C)C)C(=O)O[C@H](Cc2ccc(N3CCOCC3)cc2)C(=O)N(C)[C@@H](CC(C)C)C(=O)O[C@H](C)C(=O)N1C` [emodepside], the “whole cell patch clamp, transfected HEK293 cells; transient facilitation then in” value in assay [2] was “In HEK293 cells expressing KCNMA1 emodepside elicited a biphasic, concentration-dependent effect on current amplitude”. Compound `COc1ccc2c3c4n(c2c1)[C@H](C=C(C)C)OOC(C)(C)C[C@@H]4N1C(=O)[C@@H]2CCCN2C(=O)[C@]1(O)[C@H]3O` [verruculogen] had an IC50 in assay [1] of 6.2 nM.
